Measurements reported in patent US20230167103A1 (Bayer Aktiengesellschaft, priority 2020, published 2023).
Where two headings read alike, the source gives them in different places.

Target: T1, human DGKζ (Homo sapiens, UniProt Q13574)
T1 construct: made in house; host or cells: Sf9 insect cells, baculovirus
Assay: Human DGKζ kinase activity inhibition assay (ADP-Glo)
Type: biochemical
Method in brief: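 Enzyme was C-terminally FLAG-tagged full-length human DGKζ from baculovirus-infected insect cells, typically about 0.1 nM, with 1,2-dioleoyl-sn-glycerol in octyl-β-D-glucopyranoside micelles as substrate. ADP formed was detected by ADP-Glo luminescence; data normalised to no-inhibitor (0%) and no-enzyme (100%) controls.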

[1] = example compounds, recombinant full-length human DGKζ, 1,2-dioleoyl-sn-glycerol 7 μM, ATP 55 μM, 20 min at 22° C., read-out: IC50 values of examples in in vitro human DGKζ kinase activity inhibition assays
[2] = intermediates (comparative, lacking the R2 alkyl-carboxamide group), same assay conditions, read-out: IC50 values of intermediates in in vitro human DGKζ kinase activity inhibition assays

T1 sequence (Q13574 with tags, fused parts or gaps): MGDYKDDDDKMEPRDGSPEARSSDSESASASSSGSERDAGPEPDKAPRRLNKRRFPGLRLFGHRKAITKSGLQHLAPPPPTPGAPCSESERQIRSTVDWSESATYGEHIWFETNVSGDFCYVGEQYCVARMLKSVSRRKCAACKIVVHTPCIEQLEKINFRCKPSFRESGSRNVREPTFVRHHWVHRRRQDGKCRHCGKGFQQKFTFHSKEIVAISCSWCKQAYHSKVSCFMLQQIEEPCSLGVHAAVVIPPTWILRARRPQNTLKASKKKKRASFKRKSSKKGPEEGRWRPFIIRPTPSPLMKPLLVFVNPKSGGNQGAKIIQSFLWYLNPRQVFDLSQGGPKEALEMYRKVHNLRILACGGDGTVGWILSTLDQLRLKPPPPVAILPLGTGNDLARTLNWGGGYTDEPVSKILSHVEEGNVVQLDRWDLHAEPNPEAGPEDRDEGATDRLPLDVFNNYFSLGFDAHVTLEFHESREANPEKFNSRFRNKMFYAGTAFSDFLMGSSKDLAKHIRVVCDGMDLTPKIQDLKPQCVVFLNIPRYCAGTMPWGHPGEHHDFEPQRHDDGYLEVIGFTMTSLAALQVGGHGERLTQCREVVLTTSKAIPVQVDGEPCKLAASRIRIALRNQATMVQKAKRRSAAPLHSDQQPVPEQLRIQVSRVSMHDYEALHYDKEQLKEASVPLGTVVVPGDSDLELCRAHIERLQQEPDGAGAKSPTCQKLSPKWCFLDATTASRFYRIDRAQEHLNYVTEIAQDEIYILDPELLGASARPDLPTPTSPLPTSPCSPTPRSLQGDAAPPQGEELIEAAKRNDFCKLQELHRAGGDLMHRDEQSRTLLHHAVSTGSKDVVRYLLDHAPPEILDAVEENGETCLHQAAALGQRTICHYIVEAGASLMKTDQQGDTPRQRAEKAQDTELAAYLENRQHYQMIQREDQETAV

| Compound | IC50 [1] | IC50 [2] |
| --- | --- | --- |
| CC(C(N)=O)N(c1ccc(F)cc1)c1nc(N)c(C(=O)c2cc(-c3ccccc3F)no2)s1 (racemic) [Example 67, rac-2-(N-[4-amino-5-[3-(2-fluorophenyl)isoxazole-5-carbonyl]thiazol-2-yl]-4-fluoro-anilino)propanamide] | 109 nM |  |
| CC(C(N)=O)N(c1ccc(F)cc1)c1nc(N)c(C(=O)c2cc(-c3ccccn3)no2)s1 (racemic) [Example 68, rac-2-(N-[4-amino-5-[3-(2-pyridypisoxazole-5-carbonyl]thiazol-2-yl]-4-fluoro-anilino)propanamide] | 402 nM |  |
| CC(C(N)=O)N(c1ccc(F)cc1)c1nc(N)c(C(=O)c2cc(-c3ccc(OC(F)(F)F)cc3)no2)s1 (racemic) [Example 69, rac-2-(N-[4-amino-5-[3-[4-(trifluoromethoxy)phenyl]isoxazole-5-carbonyl]thiazol-2-yl]-4-fluoro-anilino)propanamide] | 117 nM |  |
| COc1ccccc1-c1cc(C(=O)c2sc(N(c3ccc(F)cc3)C(C)C(N)=O)nc2N)on1 (racemic) [Example 70, rac-2-(N-[4-amino-5-[3-(2-methoxyphenyl)isoxazole-5-carbonyl]thiazol-2-yl]-4-fluoro-anilino)propanamide] | 27 nM |  |
| COc1ccc(-c2cc(C(=O)c3sc(N(c4ccc(F)cc4)C(C)C(N)=O)nc3N)on2)cn1 (racemic) [Example 71, rac-2-(N-[4-amino-5-[3-(6-methoxy-3-pyridyl))isoxazole-5-carbonyl]thiazol-2-yl]-4-fluoro-anilino)propanamide] | 96 nM |  |
| CC(C(N)=O)N(c1ccc(F)cc1)c1nc(N)c(C(=O)c2cc(CN3CC(F)C3)no2)s1 (racemic) [Example 73, rac-2-(N-[4-amino-5-[3-[(3-fluoroazetidin-1-yl)methyl]isoxazole-5-carbonyl]thiazol-2-yl]-4-fluoro-anilino)propanamide] | 325 nM |  |
| CC(C(N)=O)N(c1ccc(F)cc1)c1nc(N)c(C(=O)c2cc(CN3CC(F)(F)C3)no2)s1 (racemic) [Example 74, rac-2-(N-[4-amino-5-[3-[(3,3-difluoroazetidin-1-yl)methyl]isoxazole-5-carbonyl]thiazol-2-yl]-4-fluoro-anilino)propanamide] | 113 nM |  |
| CC(C(N)=O)N(c1ccc(F)cc1)c1nc(N)c(C(=O)c2cc(CN3CCC(F)(F)CC3)no2)s1 (racemic) [Example 75, rac-2-(N-[4-amino-5-[3-[(4,4-difluoro-1-piperidyl)methyl]isoxazole-5-carbonyl]thiazol-2-yl]-4-fluoro-anilino)propanamide] | 26 nM |  |
| CC(C(N)=O)N(c1ccc(F)cc1)c1nc(N)c(C(=O)c2cc(OC3CCC3)no2)s1 (racemic) [Example 79, rac-2-(N-[4-amino-5-[3-(cyclobutoxy)isoxazole-5-carbonyl]thiazol-2-yl]-4-fluoro-anilino)propanamide] | 88 nM |  |
| CC(C(N)=O)N(c1ccc(F)cc1)c1nc(N)c(C(=O)c2cc(OCC3CCC3)no2)s1 (racemic) [Example 80, rac-2-(N-[4-amino-5-[3-(cyclobutylmethoxy)isoxazole-5-carbonyl]thiazol-2-yl]-4-fluoro-anilino)propanamide] | 31 nM |  |
| CC(C(N)=O)N(c1ccc(F)cc1)c1nc(N)c(C(=O)c2cc(OC3CCC(F)(F)CC3)no2)s1 (racemic) [Example 81, rac-2-(N-[4-Amino-5-[3-(4,4-difluorocyclohexoxy)isoxazole-5-carbonyl]thiazol-2-yl]-4-fluoro-anilino)propanamide] | 17 nM |  |
| CC(C)Oc1cc(C(=O)c2sc(N(c3ccc(F)cc3)C(C)C(N)=O)nc2N)on1 (racemic) [Example 82, rac-2-(N-[4-amino-5-(3-isopropoxyisoxazole-5-carbonyl)thiazol-2-yl]-4-fluoro-anilino)propanamide] | 49 nM |  |
| CC(C(N)=O)N(c1ccc(F)cc1)c1nc(N)c(C(=O)c2cc(-c3ccccc3)no2)s1 (single isomer, unassigned) [Example 3.2, 2-(N-[4-amino-5-(3-phenylisoxazole-5-carbonyl)thiazol-2-yl]-4-fluoro-anilino)propanamide] | 1750 nM |  |
| CC(C(N)=O)N(c1ccc(F)cc1)c1nc(N)c(C(=O)c2cc(Br)no2)s1 (single isomer, unassigned) [Example 6.1, 2-(N-[4-amino-5-(3-bromoisoxazole-5-carbonyl)thiazol-2-yl]-4-fluoro-anilino)propanamide] | 64 nM |  |
| CC(C(N)=O)N(c1ccc(F)cc1)c1nc(N)c(C(=O)c2cc(Br)no2)s1 (single isomer, unassigned) [Example 6.2, 2-(N-[4-amino-5-(3-bromoisoxazole-5-carbonyl)thiazol-2-yl]-4-fluoro-anilino)propanamide] | 3490 nM |  |
| CC(C(N)=O)N(c1ccc(F)cc1)c1nc(N)c(C(=O)c2cc(C(=O)NC3(C)CCC3)no2)s1 (single isomer, unassigned) [Example 30.1, 5-[4-amino-2-(N-(2-amino-1-methyl-2-oxo-ethyl)-4-fluoro-anilino)thiazole-5-carbonyl]-N-(1-methylcyclobutyl)isoxazole-3-carboxamide] | 29 nM |  |
| CC(C(N)=O)N(c1ccc(F)cc1)c1nc(N)c(C(=O)c2cc(C(=O)NC3(C)CCC3)no2)s1 (single isomer, unassigned) [Example 30.2, 5-[4-amino-2-(N-(2-amino-1-methyl-2-oxo-ethyl)-4-fluoro-anilino)thiazole-5-carbonyl]-N-(1-methylcyclobutyl)isoxazole-3-carboxamide] | 13400 nM |  |
| CC(C(N)=O)N(c1ccc(F)cc1)c1nc(N)c(C(=O)c2cc(C(=O)NC3CC(F)(F)C3)no2)s1 (single isomer, unassigned) [Example 32.1, 5-[4-amino-2-(N-(2-amino-1-methyl-2-oxo-ethyl)-4-fluoro-anilino)thiazole-5-carbonyl]-N-(3,3-difluorocyclobutyl)isoxazole-3-carboxamide] | 31 nM |  |
| CC(C(N)=O)N(c1ccc(F)cc1)c1nc(N)c(C(=O)c2cc(C(=O)NC3CC(F)(F)C3)no2)s1 (single isomer, unassigned) [Example 32.2, 5-[4-amino-2-(N-(2-amino-1-methyl-2-oxo-ethyl)-4-fluoro-anilino)thiazole-5-carbonyl]-N-(3,3-difluorocyclobutyl)isoxazole-3-carboxamide] | 897 nM |  |
| CC(C(N)=O)N(c1ccc(F)c(F)c1)c1nc(N)c(C(=O)c2cc(C(=O)NC3(C)CCC3)no2)s1 (single isomer, unassigned) [Example 44.1, 5-[4-amino-2-(N-(2-amino-1-methyl-2-oxo-ethyl)-3,4-difluoro-anilino)thiazole-5-carbonyl]-N-(1-methylcyclobutyl)isoxazole-3-carboxamide] | 19 nM |  |
| CC(C(N)=O)N(c1ccc(F)c(F)c1)c1nc(N)c(C(=O)c2cc(C(=O)NC3(C)CCC3)no2)s1 (single isomer, unassigned) [Example 44.2, 5-[4-amino-2-(N-(2-amino-1-methyl-2-oxo-ethyl)-3,4-difluoro-anilino)thiazole-5-carbonyl]-N-(1-methylcyclobutyl)isoxazole-3-carboxamide] | 4510 nM |  |
| CC(C(N)=O)N(c1ccc(F)c(F)c1)c1nc(N)c(C(=O)c2cc(C(=O)NC3CC(F)(F)C3)no2)s1 (single isomer, unassigned) [Example 45.1, 5-[4-amino-2-(N-(2-amino-1-methyl-2-oxo-ethyl)-3,4-difluoro-anilino)thiazole-5-carbonyl]-N-(3,3-difluorocyclobutyl)isoxazole-3-carboxamide] | 20 nM |  |
| CC(C(N)=O)N(c1ccc(F)c(F)c1)c1nc(N)c(C(=O)c2cc(C(=O)NC3CC(F)(F)C3)no2)s1 (single isomer, unassigned) [Example 45.2, 5-[4-amino-2-(N-(2-amino-1-methyl-2-oxo-ethyl)-3,4-difluoro-anilino)thiazole-5-carbonyl]-N-(3,3-difluorocyclobutyl)isoxazole-3-carboxamide] | 1270 nM |  |
| CC(C(N)=O)N(c1ccc(F)c(F)c1)c1nc(N)c(C(=O)c2cc(C(=O)NC3CCCC3)no2)s1 (single isomer, unassigned) [Example 46.1, 5-[4-amino-2-(N-(2-amino-1-methyl-2-oxo-ethyl)-3,4-difluoro-anilino)thiazole-5-carbonyl]-N-cyclopentyl-isoxazole-3-carboxamide] | 27 nM |  |
| CC(C(N)=O)N(c1ccc(F)c(F)c1)c1nc(N)c(C(=O)c2cc(C(=O)NC3CCCC3)no2)s1 (single isomer, unassigned) [Example 46.2, 5-[4-amino-2-(N-(2-amino-1-methyl-2-oxo-ethyl)-3,4-difluoro-anilino)thiazole-5-carbonyl]-N-cyclopentyl-isoxazole-3-carboxamide] | 2280 nM |  |
| C[C@H](C(N)=O)N(c1ccc(F)cc1)c1nc(N)c(C(=O)c2cc(-c3ccccc3)no2)s1 [Example 3.1, (R)-2-(N-[4-amino-5-(3-phenylisoxazole-5-carbonyl)thiazol-2-yl]-4-fluoro-anilino)propanamide] | 61 nM |  |
| rac-2-(N-[4-amino-5-[3-(pyrrolidine-1-carbonyl)isoxazole-5-carbonyl]thiazol-2-yl]-4-fluoro-anilino)propanamide [Example 19] |  | > 20000 nM |
| rac-5-[4-amino-2-(N-(2-amino-1-methyl-2-oxo-ethyl)-4-fluoro-anilino)thiazole-5-carbonyl]-N-(1-cyclopropylcyclopropyl)isoxazole-3-carboxamide [Example 24] |  | > 20000 nM |
| rac-5-[4-amino-2-(N-(2-amino-1-methyl-2-oxo-ethyl)-4-fluoro-anilino)thiazole-5-carbonyl]-N-(1-methylcyclobutyl)isoxazole-3-carboxamide [Example 30] |  | 12000 nM |
